The record followed here is paper PMC8748766, “The catalytic activity of TCPTP is auto-regulated by its intrinsically disordered tail and activated by Integrin alpha-1” (Nature Communications, 2022).

The target of data set [1] is T1, TCPTP (Homo sapiens, UniProt P17706).
T1 construct: fragments of TCPTP (residues: 1–387); His6 (N, cleaved yes); made in house; host or cells: E. coli BL21 (DE3) RIL
T1 sequence (P17706 1-387 isoform P17706-2): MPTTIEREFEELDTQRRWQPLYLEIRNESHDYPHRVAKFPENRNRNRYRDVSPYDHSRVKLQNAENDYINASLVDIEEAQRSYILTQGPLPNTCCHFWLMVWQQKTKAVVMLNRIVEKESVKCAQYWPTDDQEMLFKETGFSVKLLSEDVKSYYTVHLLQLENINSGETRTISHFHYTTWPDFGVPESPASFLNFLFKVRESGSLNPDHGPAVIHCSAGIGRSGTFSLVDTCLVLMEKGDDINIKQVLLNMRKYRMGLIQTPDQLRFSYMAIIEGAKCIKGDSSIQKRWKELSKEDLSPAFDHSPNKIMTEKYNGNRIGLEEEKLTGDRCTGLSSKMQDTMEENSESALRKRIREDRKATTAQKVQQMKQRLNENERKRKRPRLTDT
Description: Kinetics of TCPTP with saturating ITGA1 peptide, pEGFR peptide-1 substrate. It counts as biochemical. The following applies: TCPTP saturated with ITGA1 peptide (ITGA1_TR 1 μM; ITGA1_FCT 25 μM), mean ± SE, n = 9. An excerpt: (§1) Polymerase chain reaction (PCR) fragments of TCPTP (residues: 1–387) TCPTPCAT (catalytic domain, residues: 1–288, 1–302 or 1–314), TCPTPTail (C-terminal tail, residues: 289–387 or 303–387) were amplified from full-length human TCPTP (TC45 isoform). TCPTP, TCPTPCAT (residues: 1–288, 1–314), and TCPTPTail (residues: 289–387) fragments were cloned into pMCSG7 including a N-terminal His6-tag using ligation-independent cloning. For all NMR experiments, the PCR fragments of TCPTP, TCPTPCAT (residues: 1–302) and TCPTPTail (residue: 303–387) were sub-cloned into pRP1B as previously described.
(§2) The rate of dephosphorylation of TCPTP and TCPTPCAT (residue 1–314) against 2 phosphotyrosine peptides derived from EGFR was monitored either with or without ITGA1 peptide (ITGA1_FCT & ITGA1_TR) in assay buffer (25 mM Hepes pH 7.4, 50 mM NaCl and 1 mM DTT). Lyophilized powder of all synthetic peptides was dissolved in assay buffer without DTT (phosphopeptides, 5 mM; ITGA1 peptides, 2 mM). For the kinetic analysis, the concentration of the enzyme was fixed at 1 nM while the substrate (phosphopeptides) concentration was varied from 2.5 μM to 160 μM in a total reaction volume of 200 μl. Effect of ITGA1 peptide on TCPTP & TCPTPCAT kinetics were assessed in saturated condition by adding an excess amount of ITGA1 peptide to the reaction mixture (ITGA1_TR = 1 μM; ITGA1_FCT = 25 μM). The reaction was incubated at 30 °C for 30 min and stopped by the addition of 30 μl phosphate reagent (phosphate colorimetric assay kit; Bio Vision) following the manufacturer’s instructions. Data were normalized and fitted using a nonlinear curve, and kinetics parameters (KM and kcat) were calculated from the Michaelis-Menten equation using Graph Pad Prism 9.0. All data points in the enzyme kinetics experiment were measured in triplicate, and the experiments were repeated three times.

Data set [2] concerns the target T1, TCPTP. Description: Kinetics of TCPTP with saturating ITGA1 peptide, pEGFR peptide-2 substrate. It counts as biochemical. The following applies: TCPTP saturated with ITGA1 peptide (ITGA1_TR 1 μM; ITGA1_FCT 25 μM), mean ± SE, n = 9.
Description: as §1, §2

For data set [3], the target named is T1, TCPTP. Description: EC50 assay: TCPTP activation by ITGA1 peptides (pEGFR peptide-1 dephosphorylation). It counts as biochemical. The following applies: 1 nM TCPTP, 50 μM pEGFR peptide-1, n = 3.
Description: as §1
To determine the EC50, synthesized ITGA1 peptides (ITGA1_FCT, ITGA1_TCT and ITGA1_TR) were mixed with TCPTP, and phosphatase activity was measured using the phospho-EGFR peptides (pEGFR peptide-1) as substrate. Lyophilized powder of all peptides was dissolved in 25 mM Hepes pH 7.4, 50 mM NaCl. For the assay, the TCPTP concentration was fixed at 1 nM and substrate phospho-peptide at 50 μM. […] The absorbance of the reaction mixture was measured at 650 nm, which was converted to the amount of phosphate produced in reaction based on the standard curve generated from the known phosphate concentration. Data obtained from the reaction was fitted using nonlinear regression mode and EC50 values were calculated based on the equation function “Log(agonist) vs. response-variable slope” using Graph Pad Prism 9.0.

Another data set addresses T2, TCPTPCAT (Homo sapiens, UniProt P17706).
T2 construct: TCPTP and TCPTPCAT (residue 1–314) against 2 phosphotyrosine peptides derived from EGFR; His6 (N, cleaved yes); made in house; host or cells: E. coli BL21 (DE3) RIL
T2 sequence (P17706 1-314 isoform P17706-2): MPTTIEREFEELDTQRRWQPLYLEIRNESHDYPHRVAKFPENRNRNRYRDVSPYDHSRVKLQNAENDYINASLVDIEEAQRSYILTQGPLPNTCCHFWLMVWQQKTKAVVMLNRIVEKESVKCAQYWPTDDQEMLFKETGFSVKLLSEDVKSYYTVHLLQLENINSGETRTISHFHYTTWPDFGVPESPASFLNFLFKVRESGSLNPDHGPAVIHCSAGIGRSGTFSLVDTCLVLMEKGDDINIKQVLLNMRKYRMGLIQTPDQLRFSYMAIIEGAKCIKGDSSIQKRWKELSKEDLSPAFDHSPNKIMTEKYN
Description: NMR titration (2D HSQC/TROSY) binding to TCPTPCAT
The following applies: 2D [1H,15N] TROSY, unlabeled ligand added.
Description: as §1
NMR data were collected on either Bruker NEO 600 MHz or 800 MHz spectrometers equipped with TCI HCN z-gradient cryoprobes at 298 K or 283 K. NMR measurements of TCPTP’s variant construct were recorded using (^1H,^15N)-, (^2H,^15N)-, (^1H,^15N,^13C), or (^2H,^15N,^13C)-labeled protein at a final concentration of 0.6 mM for backbone assignment or 0.1 mM for titration in NMR buffer and 90% H2O/10% D2O. The sequence-specific backbone assignments of TCPTP (residues 1–387), TCPTPCAT (residues 1–302), TCPTPTail (residues 303–387) and other variants were achieved using 3D triple resonance experiments including […], 3D HNCA, 3D HN(CO)CA, 3D HN(CO)CACB, and 3D HNCACB either as HSQC or TROSY variations. All NMR data were processed using TopSpin 4.0.5[44] and analyzed using either CARA (http://www.cara.nmr.ch) and/or CcpNMR[45].

Data set [4] deals with T1, TCPTP. Description: Effect of ITGA1, ITGA10 & ITGA11 peptide on TCPTP activity, pEGFR peptide-2. The format is biochemical. As to conditions: pEGFR peptide-2 substrate, n = 9.
Description: as §1
Relative activity of TCPTP and its variant mutant construct were measured by adding 1 nM of enzymes against the fixed concentration of substrate (100 μM of phosphopeptides), the reaction was incubated at 30 °C for 30 min in assay buffer before getting stopped as described above. […]
Supplementary Figure 8: TCPTP is distinctively activated by Integrin cytoplasmic tail with positive charge residue clusters. a Sequence alignment of the cytoplasmic tail for the human Integrin family. Positive charge residues are highlighted in blue, while negative charge residues are red; a black box highlights large clusters of positive charge residue. b Effect of ITGA1, ITGA10 & ITGA11 on the catalytic activity of TCPTP, measured against pEGFR peptide-2, derived from the EGFR’s kinase domain activation loop. […]

For data set [5], the system named is pEGFR peptide-1, derived from the cytoplasmic tail of EGFR. Description: Phosphatase kinetic analysis (Michaelis-Menten) of TCPTP constructs, pEGFR peptide-1 substrate. The format is biochemical. The protocol:
as §2

The test system of data set [6] is pEGFR peptide-2, derived from the EGFR's kinase domain activation loop. Description: Phosphatase kinetic analysis (Michaelis-Menten) of TCPTP constructs, pEGFR peptide-2 substrate. It counts as biochemical. The protocol: as §2
Supplementary Table 2: Enzymatic activity assay (Michaelis-Menten analysis); substrate pEGFR peptide-2, derived from the EGFR’s kinase domain activation loop. Calculated kinetic parameter are presented as the mean of nine independent reactions (n=9; mean ± SE). Source data are provided as a Source Data file. kcat (s-1) Km (µM) kcat/Km (µM -1s-1)

Data set [7] in a line: DiFMUP assay of TCPTP, TCPTPCAT, PTP1B and PTP1BCAT. The format is biochemical. The following applies: 10 μM DiFMUP, 2.5 nM protein, pH 7.4, 25 min, fluorescence 455 nm; n = 9. The method, then: Activity of TCPTP, TCPTPCAT (residue 1–314) either with or without ITGA1 peptides (ITGA1_TR; 1:50 molar ratio, ITGA1_FCT; 1:1000 molar ratio), PTP1B (residue 1–400) and PTP1BCAT (residue 1–321) were assessed in assay buffer (25 mM Hepes pH 7.4, 50 mM NaCl, and 1 mM DTT). The assay was performed in black polystyrene flat bottom 96-well plate. The concentration of DiFMUP was fixed at 10 μM and protein concentration at 2.5 nM in total reaction volume of 100 μl. The emitted fluorescent signal at 455 nm was continuously recorded for 25 min using a Tecan Infinite M1000 pro microplate reader (Tecan i-control, 2.0.10.0).

The mark [8] stands for this setting: pEGFR peptide-2 2.5-160 μM, 1 nM enzyme, pH 7.4, 30 °C 30 min, mean ± SE, n = 9.

By kcat is commonly meant the maximal rate divided by the concentration of active sites. The term Km denotes the substrate concentration at which the rate is half of its maximum. Consider “KIGFFKRPLKKKMEK [ITGA1_FCT, ITGA1 full cytoplasmic tail: …]”, for which the kcat came to 26.6 ± 0.8 s⁻¹ on TCPTP [1] (pEGFR peptide-1, 1 nM enzyme, pH 7.4, 30 °C 30 min) and 30.2 ± 1.2 s⁻¹ at TCPTP [2] (pEGFR peptide-2, pH 7.4, 30 °C 30 min). For the same molecule, the Km came out at 20.2 ± 1.9 µM at TCPTP [1] (pEGFR peptide-1, pH 7.4, 30 °C) and 32.8 ± 3.7 µM at TCPTP [2] (pEGFR peptide-2). In addition, the values for the kcat/Km at TCPTP [1] (pEGFR peptide-1) and at TCPTP [2] (pEGFR peptide-2) were 1.3e+06 ± 100000 M⁻¹ s⁻¹ and 0.9 ± 0.1 µM -1s-1, respectively. In addition, at TCPTP [3], the “activation relative to ITGA1_TCT” value is listed as “functions better than ITGA1_TCT”. In addition, at TCPTPCAT, the “NMR titration: CSPs in (2H,15N)-labeled TCPTPCAT” value was “significant CSPs in the same residues”.

As to KLGFFRSARRRREPGLDPTPKVLE [ITGA11], at TCPTP [4], the TCPTP activation result was “efficiently activates TCPTP”.

On to KLGFFAHKKIPEEEKREEKLEQ [ITGA10], for which, on TCPTP [4], the TCPTP activation entry is listed as “fails to do so”.

B1: TCPTP: T-Cell Protein Tyrosine Phosphatase, TC45 isoform, full-length residues 1–387 (protein)
chain: MPTTIEREFEELDTQRRWQPLYLEIRNESHDYPHRVAKFPENRNRNRYRDVSPYDHSRVKLQNAENDYINASLVDIEEAQRSYILTQGPLPNTCCHFWLMVWQQKTKAVVMLNRIVEKESVKCAQYWPTDDQEMLFKETGFSVKLLSEDVKSYYTVHLLQLENINSGETRTISHFHYTTWPDFGVPESPASFLNFLFKVRESGSLNPDHGPAVIHCSAGIGRSGTFSLVDTCLVLMEKGDDINIKQVLLNMRKYRMGLIQTPDQLRFSYMAIIEGAKCIKGDSSIQKRWKELSKEDLSPAFDHSPNKIMTEKYNGNRIGLEEEKLTGDRCTGLSSKMQDTMEENSESALRKRIREDRKATTAQKVQQMKQRLNENERKRKRPRLTDT
modifications: left off: His6, N-terminal, cleaved
For B1, the catalytic constant (kcat) in data set [5] (pEGFR peptide-1 2.5-160 μM, 1 nM enzyme, 25 mM Hepes pH 7.4, 50 mM NaCl, 1 mM DTT, 30 °C 30 min, mean ± SE, n = 9 (TCPTPCAT, TCPTP) or 12 (TCPTPC-term, TCPTPL1)) amounted to 12.2 ± 0.2 s⁻¹; in data set [6] (setting [8]), 13.8 ± 0.5 s⁻¹. For the same molecule, the Km was 12.4 ± 0.6 µM in data set [5] (pEGFR peptide-1 2.5-160 μM, 1 nM enzyme, pH 7.4, 30 °C 30 min, mean ± SE, n = 9 (TCPTPCAT, TCPTP) or 12 (TCPTPC-term, TCPTPL1)) and 21.2 ± 2.6 µM in data set [6] (setting [8]). Further, the kcat/Km in data set [5] (pEGFR peptide-1, pH 7.4, 30 °C, mean ± SE, n = 9 (TCPTPCAT, TCPTP) or 12 (TCPTPC-term, TCPTPL1)) turned out to be 1e+06 ± 100000 M⁻¹ s⁻¹; in data set [6] (pEGFR peptide-2, mean ± SE, n = 9) it was 0.6 ± 0.1 µM -1s-1. The “rate of dephosphorylation, fold slower than TCPTPCAT” value is ~ 3 fold in data set [5] (pEGFR peptide-1, vs TCPTPCAT) and ~ 3 fold in data set [6] (pEGFR peptide-2, vs TCPTPCAT). Besides, the “DiFMUP dephosphorylation, times slower than with TCPTPCAT” value in data set [7] is recorded as ~ 3 times.
